Like-named read-outs stand apart in the source and are kept apart here.
Key:
[1] = snar bond, DMSO
[2] = target: CFTR-mediated chloride transport (Homo sapiens, UniProt P13569); type: cell-based; conditions: enteroid cells incubated with test compound 18-24 hours, acute 10 μM forskolin and 300 nM Compound III; for Max. Activity: % of chloride transport with 3 μM Compound A, 3 μM Compound II and 300 nM acute Compound III triple combination control
In short: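 Membrane-potential fluorescence AUC over 15 min quantified CFTR chloride transport after acute forskolin (10 μM), IBMX (100 μM) and Compound III (300 nM) in chloride-free buffer. Human enteroid cells were pretreated with compound for 18–24 h; % Activity is relative to 3 μM Compound A + 3 μM Compound II + 300 nM Compound III.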

Chain of CFTR-mediated chloride transport (P13569 whole entry, looked up): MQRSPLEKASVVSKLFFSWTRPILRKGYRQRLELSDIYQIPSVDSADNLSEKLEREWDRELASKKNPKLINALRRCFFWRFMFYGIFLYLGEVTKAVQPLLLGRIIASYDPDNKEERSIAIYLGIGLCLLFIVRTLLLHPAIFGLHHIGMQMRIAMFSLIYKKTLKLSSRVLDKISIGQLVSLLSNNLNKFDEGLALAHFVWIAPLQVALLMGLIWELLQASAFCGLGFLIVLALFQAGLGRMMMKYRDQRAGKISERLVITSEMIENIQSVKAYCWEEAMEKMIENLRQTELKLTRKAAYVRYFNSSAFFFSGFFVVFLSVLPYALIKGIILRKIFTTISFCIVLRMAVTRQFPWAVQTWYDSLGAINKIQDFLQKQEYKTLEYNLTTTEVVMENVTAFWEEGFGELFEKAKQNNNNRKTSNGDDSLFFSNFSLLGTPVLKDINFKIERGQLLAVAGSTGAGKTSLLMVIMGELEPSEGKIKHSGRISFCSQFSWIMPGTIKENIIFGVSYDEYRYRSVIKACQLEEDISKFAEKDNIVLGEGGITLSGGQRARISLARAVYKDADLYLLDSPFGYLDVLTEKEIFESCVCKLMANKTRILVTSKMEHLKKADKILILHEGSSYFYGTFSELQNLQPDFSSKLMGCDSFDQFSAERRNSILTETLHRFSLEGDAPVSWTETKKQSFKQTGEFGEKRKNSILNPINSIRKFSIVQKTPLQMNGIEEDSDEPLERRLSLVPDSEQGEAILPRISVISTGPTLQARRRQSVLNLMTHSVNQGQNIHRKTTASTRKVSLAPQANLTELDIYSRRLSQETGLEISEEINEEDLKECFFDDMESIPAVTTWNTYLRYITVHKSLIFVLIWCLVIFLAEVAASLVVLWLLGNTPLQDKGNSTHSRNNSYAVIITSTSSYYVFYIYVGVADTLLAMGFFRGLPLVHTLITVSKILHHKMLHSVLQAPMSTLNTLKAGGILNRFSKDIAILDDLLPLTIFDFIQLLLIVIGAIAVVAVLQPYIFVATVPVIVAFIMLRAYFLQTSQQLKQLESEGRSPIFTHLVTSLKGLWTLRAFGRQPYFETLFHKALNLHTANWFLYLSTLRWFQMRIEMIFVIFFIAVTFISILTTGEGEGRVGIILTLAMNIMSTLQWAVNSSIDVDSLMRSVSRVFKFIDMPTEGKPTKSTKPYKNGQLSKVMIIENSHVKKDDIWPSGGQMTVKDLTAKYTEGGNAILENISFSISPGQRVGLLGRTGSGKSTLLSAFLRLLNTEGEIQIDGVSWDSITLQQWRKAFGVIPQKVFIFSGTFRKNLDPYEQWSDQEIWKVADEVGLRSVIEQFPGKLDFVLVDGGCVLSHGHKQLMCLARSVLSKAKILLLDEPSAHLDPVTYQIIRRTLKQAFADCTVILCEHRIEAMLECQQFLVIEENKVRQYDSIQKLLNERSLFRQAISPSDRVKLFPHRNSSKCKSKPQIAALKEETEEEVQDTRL

| Compound | EC50 [2] [nM] | Max. Activity [2] | further results |
| --- | --- | --- | --- |
| CC1(C)C[C@@H]2CCCNc3cccc(n3)S(=O)(=O)NC(=O)c3ccc(-n4ccc(O)n4)nc3N1C2 [Compound 256, (14S)-8-(3-hydroxy-1H-pyrazol-1-yl)-12,12-dimethyl-2λ^6-thia-3,9,11,18,23-pentaazatetracyclo[17.3.1.111,14.05,10]tetracosa-1(22),5,7,9,19(23),20-hexaene-2,2,4-trione] | > 3000 | ++ (++ is 30-60%) | ring closure, yield after HPLC ([1]; from CC(C)(C)OC(=O)N1C[C@@H](CCCNc2cccc(S(=O)(=O)NC(=O)c3ccc(-n4ccc(OCC5C(C)(C)C5(C)C)n4)nc3Cl)n2)CC1(C)C, 15-membered ring, TFA/DCM, then K2CO3/CsF/3A MS, 23.1 mM, 150.0 °C, 2 steps): 17% |
| CC1(C)CC2CCCNc3ccc(cn3)S(=O)(=O)NC(=O)c3ccc(-n4ccc(OCCC5(C(F)(F)F)CC5)n4)nc3N1C2 (racemic) [Compound 62, 12,12-Dimethyl-8-(3-{2-[1-(trifluoromethyl)cyclopropyl]ethoxy}-1H-pyrazol-1-yl)-2λ^6-thia-3,9,11,18,20-pentaazatetracyclo[17.2.2.111,14.05,10]tetracosa-1(22),5,7,9,19(23),20-hexaene-2,2,4-trione] | < 1000 | +++ (+++ is >60%) | ring closure, yield after HPLC ([1]; from CC1(C)CC(CCCNc2ccc(S(=O)(=O)NC(=O)c3ccc(-n4ccc(OCCC5(C(F)(F)F)CC5)n4)nc3Cl)cn2)CN1, 16-membered ring, K2CO3/CsF/3A MS, 37.3 mM, 165.0 °C, 19.0 h): 6% |
| Cc1cn2nc1S(=O)(=O)NC(=O)c1ccc(-n3ccc(OCCC4(C(F)(F)F)CC4)n3)nc1N1CC(CCC2)CC1(C)C (stereo not drawn) [Compound 199, 12,20,20-trimethyl-4-(3-{2-[1-(trifluoromethyl)cyclopropyl]ethoxy}-1H-pyrazol-1-yl)-10λ^6-thia-1,3,9,14,22-pentaazatetracyclo[16.2.1.111,14.02,7]docosa-2(7),3,5,11(22),12-pentaene-8,10,10-trione] | < 1000 | ++ (++ is 30-60%) | ring closure, yield after HPLC ([1]; from Cc1cn(CCCC2CNC(C)(C)C2)nc1S(=O)(=O)NC(=O)c1ccc(-n2ccc(OCCC3(C(F)(F)F)CC3)n2)nc1Cl, 14-membered ring, K2CO3/CsF/3A MS, 27.4 mM, 150.0 °C): 12% |
| Cc1nn2cc1S(=O)(=O)NC(=O)c1ccc(-n3ccc(OCC(C)(C)C(F)(F)F)n3)nc1N1CC(CCC2)CC1(C)C (stereo not drawn) [Compound 281, 12,20,20-trimethyl-4-[3-(3,3,3-trifluoro-2,2-dimethylpropoxy)-1H-pyrazol-1-yl]-10λ^6-thia-1,3,9,13,14-pentaazatetracyclo[16.2.1.111,14.02,7]docosa-2,4,6,11(22),12-pentaene-8,10,10-trione] | 1000 to 3000 | + (+ is <30%) | ring closure, yield after HPLC ([1]; from Cc1nn(CCCC2CNC(C)(C)C2)cc1S(=O)(=O)NC(=O)c1ccc(-n2ccc(OCC(C)(C)C(F)(F)F)n2)nc1Cl, 14-membered ring, K2CO3/CsF/3A MS, 25.9 mM, 150.0 °C): 17% |
| CC1(C)C[C@@H]2CCCn3ccc(n3)S(=O)(=O)NC(=O)c3ccc(-n4ccc(OCCC(C)(C)C(F)(F)F)n4)nc3N1C2 [Compound 221, (18S)-20,20-Dimethyl-4-[3-(4,4,4-trifluoro-3,3-dimethylbutoxy)-1H-pyrazol-1-yl]-10λ^6-thia-1,3,9,14,22-pentaazatetracyclo[16.2.1.111,14.02,7]docosa-2,4,6,11(22),12-pentaene-8,10,10-trione] | < 1000 | +++ (+++ is >60%) | ring closure, yield after HPLC ([1]; from CC(C)(C)OC(=O)N1C[C@@H](CCCn2ccc(S(=O)(=O)NC(=O)c3ccc(-n4ccc(OCCC(C)(C)C(F)(F)F)n4)nc3Cl)n2)CC1(C)C, 14-membered ring, K2CO3/CsF/3A MS, 22.0 mM, 130.0 °C, 2 steps): 21% |
| CC1(C)CC2CCCNc3cccc(n3)S(=O)(=O)NC(=O)c3ccc(-n4ccc(OCCC(C5CC5)C5CC5)n4)nc3N1C2 (stereo not drawn) [Compound 43, 8-[3-(3,3-dicyclopropylpropoxy)-1H-pyrazol-1-yl]-12,12-dimethyl-2λ^6-thia-3,9,11,18,23-pentaazatetracyclo[17.3.1.111,14.05,10]tetracosa-1(22),5,7,9,19(23),20-hexaene-2,2,4-trione] | < 1000 | +++ (+++ is >60%) | ring closure, yield after HPLC ([1]; from CC1(C)CC(CCCNc2cccc(S(=O)(=O)NC(=O)c3ccc(-n4ccc(OCCC(C5CC5)C5CC5)n4)nc3Cl)n2)CN1, 15-membered ring, K2CO3/CsF/3A MS, 26.4 mM, 130.0 °C, 2 steps): 55% |
| CC1(C)CC2CCCn3ccc(n3)S(=O)(=O)NC(=O)c3ccc(-n4ccc(OCCC5(C(F)(F)F)CC5)n4)nc3N1C2 (stereo not drawn) [Compound 32, 20,20-dimethyl-4-(3-{2-[1-(trifluoromethyl)cyclopropyl]ethoxy}-1H-pyrazol-1-yl)-10λ^6-thia-1,3,9,14,22-pentaazatetracyclo[16.2.1.111,14.02,7]docosa-2(7),3,5,11(22),12-pentaene-8,10,10-trione] | < 1000 | +++ (+++ is >60%) | ring closure, yield after HPLC ([1]; from CC(C)(C)OC(=O)N1CC(CCCn2ccc(S(=O)(=O)NC(=O)c3ccc(-n4ccc(OCCC5(C(F)(F)F)CC5)n4)nc3Cl)n2)CC1(C)C, 14-membered ring, K2CO3/CsF/3A MS, 55.3 mM, 130.0 °C, 2 steps): 40% |
| CC1(C)CC2CCNc3cccc(n3)S(=O)(=O)NC(=O)c3ccc(-n4ccc(OCC5(C(F)(F)F)CC5)n4)nc3N1C2 (stereo not drawn) [Compound 4, 7,7-dimethyl-11-(3-{[1-(trifluoromethyl)cyclopropyl]methoxy}-1H-pyrazol-1-yl)-17λ^6-thia-2,8,10,16,22-pentaazatetracyclo[16.3.1.1(5,8).0(9,14)]tricosa-1(21),9(14),10,12,18(22),19-hexaene-15,17,17-trione] | < 1000 | +++ (+++ is >60%) | ring closure, yield after HPLC ([1]; from CC1(C)CC(CCNc2cccc(S(=O)(=O)NC(=O)c3ccc(-n4ccc(OCC5(C(F)(F)F)CC5)n4)nc3Cl)n2)CN1, 14-membered ring, K2CO3, 210.5 mM, 125.0 °C, 112.0 h, 2 steps): 9% |
| CC1(C)CC2CN1c1nc(-n3ccc(OCCC4(C(F)(F)F)CC4)n3)ccc1C(=O)NS(=O)(=O)c1cccc(n1)NCCO2 (stereo not drawn) [Compound 69, 12,12-dimethyl-8-(3-{2-[1-(trifluoromethyl)cyclopropyl]ethoxy}-1H-pyrazol-1-yl)-15-oxa-2λ^6-thia-3,9,11,18,23-pentaazatetracyclo[17.3.1.111,14.05,10]tetracosa-1(22),5(10),6,8,19(23),20-hexaene-2,2,4-trione] | < 1000 | +++ (+++ is >60%) | ring closure, yield after HPLC ([1]; from CC(C)(C)OC(=O)N1CC(OCCNc2cccc(S(=O)(=O)NC(=O)c3ccc(-n4ccc(OCCC5(C(F)(F)F)CC5)n4)nc3Cl)n2)CC1(C)C, 15-membered ring, HCl (Boc off), K2CO3/CsF/3A MS, 62.3 mM, 150.0 °C, 2 steps): 61% |
| CC1(C)C[C@@H]2CCCNc3cccc(n3)S(=O)(=O)NC(=O)c3ccc(-n4ccc(OCC(C)(C)C(F)(F)F)n4)nc3N1C2 [Compound 208, (14S)-12,12-dimethyl-8-[3-(3,3,3-trifluoro-2,2-dimethylpropoxy)-1H-pyrazol-1-yl]-2λ^6-thia-3,9,11,18,23-pentaazatetracyclo[17.3.1.111,14.05,10]tetracosa-1(22),5,7,9,19(23),20-hexaene-2,2,4-trione] | < 1000 | +++ (+++ is >60%) | ring closure, yield after HPLC ([1]; from CC1(C)C[C@H](CCCNc2cccc(S(=O)(=O)NC(=O)c3ccc(-n4ccc(OCC(C)(C)C(F)(F)F)n4)nc3Cl)n2)CN1, 15-membered ring, K2CO3/CsF/3A MS, 57.7 mM, 150.0 °C): 51% |
| CC1(C)CCC2CCCCNc3cccc(n3)S(=O)(=O)NC(=O)c3ccc(-n4ccc(OCCC5(C(F)(F)F)CC5)n4)nc3N21 (stereo not drawn) [Compound 37, 12,12-dimethyl-8-(3-{2-[1-(trifluoromethyl)cyclopropyl]ethoxy}-1H-pyrazol-1-yl)-2λ^6-thia-3,9,11,20,25-pentaazatetracyclo[19.3.1.05,10.011,15]pentacosa-1(24),5,7,9,21(25),22-hexaene-2,2,4-trione] | < 1000 | + (+ is <30%) | ring closure, yield after HPLC ([1]; from CC1(C)CCC(CCCCNc2cccc(S(=O)(=O)NC(=O)c3ccc(-n4ccc(OCCC5(C(F)(F)F)CC5)n4)nc3Cl)n2)N1, 15-membered ring, K2CO3/CsF, 85.3 mM, 150.0 °C): 25% |
| Cc1ccc2nc1S(=O)(=O)NC(=O)c1ccc(-n3ccc(OCCC4(C(F)(F)F)CC4)n3)nc1N1CC(CCCN2)CC1(C)C (stereo not drawn) [Compound 129, 12,12,22-Trimethyl-8-(3-{2-[1-(trifluoromethyl)cyclopropyl]ethoxy}-1H-pyrazol-1-yl)-2λ^6-thia-3,9,11,18,23-pentaazatetracyclo[17.3.1.111,14.05,10]tetracosa-1(23),5(10),6,8,19,21-hexaene-2,2,4-trione] | < 1000 | +++ (+++ is >60%) | ring closure, yield after HPLC ([1]; from Cc1ccc(NCCCC2CN(C(=O)OC(C)(C)C)C(C)(C)C2)nc1S(=O)(=O)NC(=O)c1ccc(-n2ccc(OCCC3(C(F)(F)F)CC3)n2)nc1Cl, 15-membered ring, K2CO3/CsF/3A MS, 79.1 mM, 140.0 °C, 2 steps): 34% |
| CC1(C)CC2CCCNc3ccnc(c3)S(=O)(=O)NC(=O)c3ccc(-n4ccc(OCCC5(C(F)(F)F)CC5)n4)nc3N1C2 (stereo not drawn) [Compound 23, 12,12-dimethyl-8-(3-{2-[1-(trifluoromethyl)cyclopropyl]ethoxy}-1H-pyrazol-1-yl)-2λ^6-thia-3,9,11,18,22-pentaazatetracyclo[17.3.1.111,14.05,10]tetracosa-1(23),5(10),6,8,19,21-hexaene-2,2,4-trione] | > 3000 | + (+ is <30%) | ring closure, yield after HPLC ([1]; from CC(C)(C)OC(=O)N1CC(CCCNc2ccnc(S(=O)(=O)NC(=O)c3ccc(-n4ccc(OCCC5(C(F)(F)F)CC5)n4)nc3Cl)c2)CC1(C)C, 15-membered ring, K2CO3/CsF, 13.0 mM, 150.0 °C, 2 steps): 9% |
